Earlier results on 2 molecules are cited in patent publication US20260053764A1, “COMPOSITION FOR PREVENTING DETERIORATION IN COGNITIVE FUNCTION AND/OR IMPROVING COGNITIVE FUNCTION” (PHARMA FOODS INTERNATIONAL CO., LTD., priority 2020, published 2026).

For this series, the system named is cognitive function of elderly people. The settings on record: continuous ingestion for a year; cited from earlier work.

`CC1=C(/C=C/C(C)=C/C=C/C(C)=C/C=C/C=C(C)/C=C/C=C(C)/C=C/C2=C(C)C[C@@H](O)CC2(C)C)C(C)(C)C[C@H](O)C1` [zeaxanthin]: the “reasoning measured by the CNS Vital Signs examination method” value was “no improvement”.
Regarding `CC1=C[C@H](O)CC(C)(C)[C@H]1/C=C/C(C)=C/C=C/C(C)=C/C=C/C=C(C)/C=C/C=C(C)/C=C/C1=C(C)C[C@@H](O)CC1(C)C` [lutein], the “reasoning measured by the CNS Vital Signs examination method” value is “no improvement”.
